We go through five compounds from patent US4278687A, “Inhibition of biosynthesis of triglycerides by certain N-β-phenethyl-N-thienylalkylamines” (Shell Oil Company, priority 1980, dated 1981).

For the assay, the system named is enzyme from pig adipose tissue (synthesis of triglycerides). Description: Inhibition of triglyceride synthesis by enzyme preparation from pig adipose tissue (14C-glycerol-3-phosphate incorporation). Format: biochemical. Conditions: test compound 1000 micrograms per milliliter, 5% DMSO, 8 minutes at 37° C; compared to controls without test compound; average of two animals. Here is the method: An enzyme was prepared by homogenizing one gram of slices from pig adipose tissue, each slice being approximately 0.3 mm thick, in one-milliliter portions of a liquid medium (Liquid A). The homogenate then was centrifuged (10.000 g×15 minutes), and the supernatant phase (the enzyme) was poured through cheesecloth to remove fat that had risen to the top of the centrifuge tubes.
Liquid A had the following composition (in water):
0.15 M potassium chloride, 1 mM ethylenediaminetetracetic acid, […] Hepes (N-2-hydroxyethylpiperazine-N'-2-ethanesulfonic acid), 1 mM DTT (dithiothreitol), pH=7.0.
A solution of the test compound (Liquid B) was prepared: 10 milligrams of test compound plus 0.5 milliliter dimethylsulfoxide (DMSO) plus 1.83 milliliters of glass-distilled water.
A premix (Liquid C) was freshly prepared before each test, from the following components:
0.163 milliliter of Liquid B (containing the test compound, or for comparison omitting the test compound) was mixed with 0.1 milliliter of Liquid C, 0.05 milliliter of a solution of L-[U-^14 C] glycerol-3-phosphate (containing 5 microcuries of ^14 C per milliliter), 0.01 milliliter of 0.8 M potassium phosphate (pH=7.4), 0.07 milliliter of 0.2 M glycerol-3-phosphate (pH=7.4) and 0.047 milliliter of water. 0.25 milliliter of enzyme then was added. The final concentrations of DMSO and test compound were 5% and 1000 micrograms per milliliter, respectively. The mixture was incubated for 8 minutes at 37° C. A blank control without enzyme was incubated under the same conditions. Then, 3 milliliters of a 1:2 (v/v) mixture of chloroform and methanol was added and thoroughly mixed to terminate the reaction. After 10 minutes, 2 milliliters of chloroform and 1 milliliter of 0.1 N hydrochloric acid were added to the stirred mixture. The mixture was then centrifuged (275 g) for 5 minutes at room temperature. The top layer of the sample was siphoned off. Two milliliters of 0.1 N hydrochloric acid in 50% methanol/water was added, the mixture was centrifuged (275 g) and the top layer was carefully siphoned off. The resulting liquid (the chloroform phase) was transferred to a liquid scintillation vial and air dried. Ten milliliters of a 2:1 (v/v) mixture of toluene and Triton X-100 containing 0.27% New England Nuclear Omnifluor was added, and the radioactivity was determined in a liquid scintillation counter.
Three replicates (samples of enzyme) were conducted per experiment (per animal). The results were reported as the average of the values obtained from the adipose tissue from two experiments (i.e., two different animals).
The percent inhibition by the test compound compared to the controls (no test compound) was determined.

For the compound `CC(NCCC(c1ccccc1)c1ccsc1)C(O)c1ccccc1.Cl` (stereo not drawn) [Compound 1, alpha-(1-(3-phenyl-3-(3-thienyl)propylamino)ethyl)-benzenemethanol, hydrochloride], the “Percent Inhibition” value is listed as 94.

With `Cl.OC(CNCC=C(c1ccsc1)c1ccsc1)c1cccc(C(F)(F)F)c1` (stereo not drawn) [Compound 2, alpha-((3,3-di-3-thienyl-2-propenylamino)methyl)-3-(trifluoromethyl)benzenemethanol, hydrochloride], the “Percent Inhibition” value is 101.

`CC(NCC=C(c1ccsc1)c1ccsc1)C(O)c1ccccc1.Cl` (stereo not drawn) [Compound 3, alpha-(1-(3,3-di-3-thienyl-2-propenylamino)ethyl)-benzenemethanol, hydrochloride]: the “Percent Inhibition” value was 97.

For the compound `Cl.OC(CNCCC(O)(c1ccccc1)c1ccsc1)c1ccc(Cl)cc1` (stereo not drawn) [Compound 4, alpha-(2-(2-(4-chlorophenyl)-2-hydroxyethylamino)-ethyl)-alpha-phenyl-3-thiophenemethanol, hydrochloride], the “Percent Inhibition” value was 94.

Take `CC(C)c1ccc(C(=CCNC(C)C(O)c2ccccc2)c2ccsc2)cc1.Cl` (stereo not drawn) [Compound 5, alpha-(1-(3-(4-(1-methylethyl)-phenyl)-3-(3-thienyl)-2-propenylamino)ethyl)benzenemethanol, hydrochloride]: the “Percent Inhibition” value is on record as 96.
